Assays:
[1] = UV-visible absorption spectra in DMSO; format: physicochemical
Description: The absorption spectra of compounds (4) and (5) recorded in DMSO are shown in FIG. 1 along with the parent compound (2). Based on the study of absorption spectra of hypocrellin B (2) (Diwu et al. Sinica Sol. B 18, 1993, 131), the shorter wavelength absorption bands are assigned to the π-π* transition, and the absorption bands at the longer wavelength is the relation to […] charge transfer (ICT) which may take on some active role in the photodynamic activity of the molecule. From FIG. 1, the absorption at the longer wavelengths of compounds (4) and (5) has enhanced, as compared to the parent hypocrellin B (2). The maximum absorption of compounds (4) and (5) is around 600-700 nm in DMSO which helps in tissue penetration, while the parent compound hypocrellin (2) has maximum absorption at 580 nm in DMSO. When an electron donating group like 3-dimethylaminopropylamine is introduced in the quinonoid molecule, its interaction with the adjacent carbonyl group enhances the red shift in the absorption spectra, thereby leading to an extended red shift spectral region (photodynamic window) which is important for PDT.

EMT-6 cells [2] = experiment: Dark toxicity, clonogenic assay in EMT-6 cells; format: cell-based, mouse; settings: no light
Method: EMT-6 cells in log phase growth were plated onto 35 mm dishes 24 hours prior to experimentation. Growth media was removed and replaced with media containing compounds (4) and (5) at the doses (0, 2.5 μM, 5 μM and 20 μM). The plates were then kept at 37° C. for 3 hours in the dark and then the cells were washed 2 times in PBS then trypsinized and re-plated at 200 cells/60 mm dish in normal RPMI growth media. The cells were allowed to grow for 7 days and then stained with Methylene Blue and the surviving colonies counted.
EMT-6 cells in log phase growth were plated onto 35 mm tissue culture dishes 24 hours prior to experimentation. Growth media was removed and replaced with media containing compounds (4) or (5) at the above doses—0, 2.5 μM, 5 μM and 20 μM (Initially, the drugs were dissolved in pure DMSO @ a concentration of 2 mM). They were diluted down to the appropriate concentrations in RPMI growth media. The plates were then kept at 37° C. for 3 hours in the dark and then the cells were washed 2 times in PBS and finally had 2 ml of RPMI added to each dish. Then, the dark toxicity samples were kept covered at room temperature for the equivalent time taken for light treatment of the other samples. […] The cells were allowed to grow for 7 days and then stained with Methylene Blue and the surviving colonies counted.

EMT-6 cells [3] = experiment: Light treatment (PDT), clonogenic assay in EMT-6 cells; format: cell-based, mouse; settings: for cell killing ability: 0-20 μM drug, graded light doses, 635 nm; for cell death after light treatment: EMT-6 cells, clonogenic assay, with light; for cell survival: Five μM drug concentration with 2 J/cm^2 light treatment, 635 nm laser
Method: EMT-6 cells in log phase growth were plated onto 35 mm tissue culture dishes 24 hours prior to experimentation. Growth media was removed and replaced with media containing compounds (4) or (5) at the above doses—0, 2.5 μM, 5 μM and 20 μM (Initially, the drugs were dissolved in pure DMSO @ a concentration of 2 mM). They were diluted down to the appropriate concentrations in RPMI growth media. The plates were then kept at 37° C. for 3 hours in the dark and then the cells were washed 2 times in PBS and finally had 2 ml of RPMI added to each dish. Then, the dark toxicity samples were kept covered at room temperature for the equivalent time taken for light treatment of the other samples. Light treated samples were subjected to grades doses of light (0, 0.5, 1, 2.5 and 5 J/cm^2) from 635 nm laser with a fluency rate of 150 milli watts. The media was removed and the cells trypsinized and re-plated at 200 cells/60 mm dish in normal RPMI growth media. The cells were allowed to grow for 7 days and then stained with Methylene Blue and the surviving colonies counted.

BT549 cells = experiment: Photodynamic activity, tritiated thymidine uptake in BT549 cells; format: cell-based; settings: for activity in the absence of light treatment: no light; for cell death after light treatment: tritiated thymidine uptake, with light
Description: The photodynamic activity of compound 4 has been studied in two cell lines cells by measuring cell death post treatment by tritiated thymidine uptake (in […] cells) and clonogenic assays (in EMT-6 cells).
The photodynamic activity of ACP-compound 5 was studied in two cell lines cells by measuring cell death post treatment by tritiated thymidine uptake (in BT549 cells) and clonogenic assays (in EMT-6 cells).

normal mouse skin = experiment: PDT effect on normal mouse skin; format: in vivo
Description: Likewise, the photosensitizer alone without light treatment was also ineffective.

[4] = system: human (ex vivo) skin samples; experiment: PDT treated human (ex vivo) skin samples, histology
[5] = Phase 1 clinical study, topical application to the back of patients with acne; format: in vivo, human; settings: 10 patients with acne on the back
Description: The primary objective of the study was to measure and quantify the fluorescence levels of ACP-compound 4 in sebaceous glands, epidermis and hair follicles at different time points after topical application. The study also monitored the safety of the drug product after topical administration. The study consisted of a group of 10 patients with acne on the back.

[6] = Fluorescence spectra in chloroform; format: physicochemical
Description: The introduction of the extra cyclic ring in compound (5) have shown a new fluorescent band at longer wavelength (around 725 nm), because of the […] H-atom transfer process. The new florescent band is considered to be related to the ICT between the amino group and the […] carbonyl group.

EMT-6 mouse tumor model = experiment: PDT in EMT-6 mouse tumor model; format: in vivo; settings: liposomal formulation (DPPC and cholesterol) combined with light treatment
Description: Liposomal formulations of compound 5 for systemic delivery of the photosensitizer. The photosensitizer is formulated with a mixture of dipalmitoyl phosphatidylcholine (DPPC) and cholesterol and extruded through membrane of different pore size until the required size of liposomes was achieved.

Structure (SMILES) | absorption at the longer wavelengths as compared to the parent hypocrellin B (2) [1] | activity in the absence of light treatment (EMT-6 cells [2]) | cell killing ability (EMT-6 cells [3]) | cell death after light treatment (EMT-6 cells [3]) | cell survival (EMT-6 cells [3]) [cell per 1000 plated] | activity in the absence of light treatment (BT549 cells) | cell death after light treatment (BT549 cells) | tissue damage (normal mouse skin; 70 J/cm^2, penetration for 3 to 5 hours) | tissue damage (normal mouse skin; 70 J/cm^2, penetration time of 1 or 2 hours, 7 days post treatment) | tissue damage (normal mouse skin; 100 J/cm^2, 1 hour of penetration) | tissue damage (normal mouse skin; 100 J/cm^2, 2 hours of penetration) | tissue damage (normal mouse skin; 100 J/cm^2, 3 hours of penetration) | tissue damage, photosensitizer alone (normal mouse skin; without light treatment) | histological changes after PDT [4] | adverse events [5] | new fluorescent band at longer wavelength [6] | tumor response (EMT-6 mouse tumor model) | maximum absorption [1] [nm]
COc1c(O)c2c(=O)cc(OC)c3c4c(OC)cc(=O)c5c(O)c(NCCCN(C)C)c6c(c(c1C(C(C)=O)C(C)=C6)c23)c54 (stereo not shown) [Compound 4, 2-(N,N-dimethylaminopropyl)-amino-15-acetyl-3,10-dihydroxy-6,7,11-trimethoxy-14-methyl-15-H-cyclohepta(ghi)perylene-4,9-dione] | enhanced | No significant activity | dose dependent cell killing ability with increasing light and drug dose | significant cell death | 1 | No significant activity | significant cell death | significant epidermal apoptosis | mild injury to the epidermal cells | only the epithelium and part of the fatty layer showed damage | Apoptosis of epidermal cells, basal layer and hair follicle | the whole tissue layer, including muscle layer showed significant damage | ineffective | no histological changes up to two days post treatment but progressive necrotic/apoptotic changes thereafter | No adverse events have been observed |  |  | 
COc1c(O)c2c(=O)cc(OC)c3c4c(OC)cc(=O)c5c6c(c7c(c(c1C(C(C)=O)C(C)=C7)c23)c54)NC1CCCCC1N6 (stereo not shown) [Compound 5, (2,3b)-Octahydroquinoxalin-yl-hypocrellin B derivative] | enhanced | No significant activity | dose dependent cell killing ability with increasing light and drug dose | significant cell death | 1 | No significant activity | significant cell death |  |  |  |  |  |  |  |  | around 725 nm | Complete cure of the implanted tumor | 
COc1c2c3c4c(c(OC)c(=O)c5c(O)cc(OC)c(c6c(OC)cc(O)c(c1=O)c63)c54)C(C(C)=O)=C(C)C2 [hypocrellin (2), hypocrellin B, reference compound] |  |  |  |  |  |  |  |  |  |  |  |  |  |  |  |  |  | 580

Source: US8747811B2, “Perylenequinone derivatives and uses thereof” (Quest Pharmatech, Inc., priority 2005, dated 2014)
